Excerpt: In one or more embodiments, the foamable composition includes a potent solvent, in addition to or in place of one of the hydrophobic solvents, polar solvents or emollients of the composition. A potent solvent is a solvent other than mineral oil that solubilizes a specific active agent substantially better than a hydrocarbon solvent such as mineral oil or petrolatum.

Row | Structure (SMILES) | Solubility in glycofurol | Solubility in mineral oil [%] | Solubility in dimethyl isosorbide | Solubility in propylene glycol | Solubility in polyethylene glycol 400 (PEG 400) | Solubility in isostearic acid
1 | CCCC(=O)O[C@]1(C(=O)CO)CC[C@H]2[C@@H]3CCC4=CC(=O)CC[C@]4(C)[C@H]3[C@@H](O)C[C@@]21C [Hydrocortisone butyrate] | more than 1% | < 0.01 |  |  |  | 
2 | CC(=O)[C@H]1CC[C@H]2[C@@H]3CCC4=CC(=O)CC[C@]4(C)[C@H]3CC[C@]12C [Progesterone] |  | < 0.001 |  |  |  | 
3 | CC(=O)N1CCN(c2ccc(OCC3COC(Cn4ccnc4)(c4ccc(Cl)cc4Cl)O3)cc2)CC1 (stereo not drawn) [Ketoconazole] | more than 1% | < 0.01 | more than 1% | more than 1% |  | 
4 | C/C(=C\C(=O)OCCCCCCCCC(=O)O)C[C@@H]1OC[C@H](C[C@@H]2O[C@H]2[C@@H](C)[C@H](C)O)[C@@H](O)[C@H]1O [Mupirocin] | more than 1% | < 0.01 | more than 1% | more than 1% | more than 1% | 
5 | CC(C)Cn1cnc2c(N)nc3ccccc3c21 [imiquimod, 4-Amino-1-isobutyl-1H-imidazo[4,5-c] quinoline] |  |  |  |  |  | soluble
6 | CCCCC(=O)O[C@]1(C(=O)CO)[C@@H](C)C[C@H]2[C@@H]3CCC4=CC(=O)C=C[C@]4(C)[C@@]3(F)[C@@H](O)C[C@@]21C [Betamethasone valerate] | more than 1% | < 0.01 |  |  |  | 
7 | Cc1cnc(NC(=O)C2=C(O)c3ccccc3S(=O)(=O)N2C)s1 [Meloxicam] |  | < 0.001 |  |  |  | 
8 | Cc1ncc([N+](=O)[O-])n1CCO [Metronidazole] |  | < 0.01 | more than 1% |  |  | 
